We go through eight compounds from article PMC11860776 (Viruses, 2025).

“Also recorded” adds a separate entry of the source. Where two headings read alike, the source gives them in different places.

The target of data set [1] is T1, mIMPα2ΔIBB:NS1 NLS interaction (Mus musculus, UniProt P52293).
T1 construct: made in house; host or cells: bacteria
Briefly: AlphaScreen inhibition assay of the IMPα:NS1-NLS interaction. In kind it is binding. In general terms: Bead proximity is the source of the signal in Alpha formats.

The test system of data set [2] is B19V. On the set-up: method as in earlier work. To be noted: UT7/EpoS1 cells, IVM at 10 μM; cited from earlier work.
Data set [3] relates to B19V. Briefly: Antiviral assay: B19V DNA replication by qPCR in EPCs. To be noted: B19V DNA 48 hpi vs 2 hpi, table: mean (95% CI). In kind it is cell-based, Human parvovirus B19. For orientation: Real-time PCR tracks product formation cycle by cycle.
Data set [4] concerns B19V. Briefly: Antiviral assay: B19V DNA replication by qPCR in UT7/EpoS1 cells. In kind it is cell-based, Human parvovirus B19. The settings on record: for EC50: B19V DNA 48 hpi vs 2 hpi, table: mean (95% CI); for inhibition of viral replication: compounds at 10 μM, 48 hpi vs 2 hpi.
In the next data set the test system is EPCs. Briefly: Cell cytotoxicity assay (WST-8, CCK-8) in EPCs. In kind it is cell-based, human. To be noted: for CC50: WST-8 based assay, TLTM: too low to measure; for cell toxicity: every concentration tested.
In another data set the test system is UT7/EpoS1 cells. Briefly: Cell cytotoxicity assay (alamarBlue HS) in UT7/EpoS1 cells. In kind it is cell-based. The settings on record: for CC50: 6 h + 48 h with compound, alamarBlue, table: mean (95% CI). A general note: Alamar Blue is a resazurin reagent that responds to reducing activity.
[5] abbreviates: titration 0-5 μM, average ± SD, 4 independent experiments, read-out: IC50.

For the compound `CC[C@H](C)[C@H]1O[C@]2(CC[C@@H]1C)C[C@@H]1C[C@@H](C/C=C(\C)[C@@H](O[C@H]3C[C@H](OC)[C@@H](O[C@H]4C[C@H](OC)[C@@H](O)[C@H](C)O4)[C@H](C)O3)[C@@H](C)/C=C/C=C3\CO[C@@H]4[C@H](O)C(C)=C[C@@H](C(=O)O1)[C@]34O)O2` [IVM, Ivermectin], in data set [1] (IVM 10 μM (text; figure legend says 2.5 μM) vs absence), the “AlphaScreen counts (mIMPα2ΔIBB:NS1 NLS interaction)” value is “significant reduction”. Besides, in data set [1] (setting [5]), the IC50 (usually the point on the concentration scale where inhibition reaches its midpoint) amounted to 0.0118 ± 0.004 µM. For the same compound, the “inhibition of B19V viral replication” value with B19V [2] is “could inhibit B19V viral replication”. The EC50 – broadly, the concentration that produces a half-maximal response – in the data set with B19V [3] was determined as 3.3 µM. In the data set with B19V [4], the “concentration from which strong inhibition of B19V DNA replication starts” value was not below 6 µM, the EC50 worked out at 7.6 µM and the “inhibition of viral replication” value is “inhibited viral replication”. Moreover, in the data set with EPCs, the CC50 (in general, the concentration that lowers cell viability or growth by half) is recorded as “TLTM” and the cell toxicity result is “extremely toxic at every concentration tested”. For the same compound, in the data set on UT7/EpoS1 cells, the “concentrations causing significative toxicity” value was “above 12.5 μM” and the CC50 turned out to be 14.5 µM.

For the compound `CC(Nc1nc(N2CCCC2)nc2ccccc12)c1ccccc1` (stereo not shown) [Importazole], in the data set with B19V [4], it took 13.4 µM to reach a half-maximal effect (EC50) and the “inhibition of viral replication” value was “inhibited viral replication; also recorded: inhibited viral replication more than IVM”. Besides, in the data set with UT7/EpoS1 cells, the CC50 stood at 30 µM.

With `CO/N=C1\C[C@]2(C[C@@H]3C[C@@H](C/C=C(\C)C[C@@H](C)/C=C/C=C4\CO[C@@H]5[C@H](O)C(C)=C[C@@H](C(=O)O3)[C@]45O)O2)O[C@H](/C(C)=C/C(C)C)[C@H]1C` [Moxidectin], the IC50 in data set [1] (setting [5]) was 0.0157 ± 0.0012 µM.

`CO[C@H]1C[C@H](O[C@@H]2/C(C)=C/C[C@@H]3C[C@@H](C[C@]4(CC[C@H](C)[C@@H](C5CCCCC5)O4)O3)OC(=O)[C@@H]3C=C(C)/C(=N/O)[C@H]4OC/C(=C\C=C\[C@@H]2C)[C@]43O)O[C@@H](C)[C@@H]1O` [Selamectin] registered an IC50 in data set [1] of 0.0508 ± 0.0029 µM.

With Avermectin B1, the IC50 in data set [1] (setting [5]) is 0.0361 ± 0.0177 µM. In the data set on B19V [4], the EC50 stood at 9.8 µM and the “inhibition of viral replication” value is “inhibited viral replication more than IVM”.

Turning to Emamectin benzoate [Emamectin benozate], in data set [1] (setting [5]), the IC50 amounted to 0.0099 ± 0.003 µM.

For the compound Eprinomectin, the IC50 in data set [1] (setting [5]) came to 0.0409 ± 0.0099 µM. In addition, the EC50 in the data set with B19V [3] was found to be 6.5 µM; with B19V [4], 3.2 µM. Moreover, the “inhibition of viral replication” value in the data set with B19V [4] is given as “inhibited viral replication more than IVM”. Also, the CC50 entry was “TLTM” in the data set on EPCs and 15.9 µM in the data set with UT7/EpoS1 cells. The cell toxicity entry in the data set with EPCs was “extremely toxic at every concentration tested”.

Milbemycin oxime: the IC50 in data set [1] (setting [5]) was determined as 0.0269 ± 0.0159 µM.
